Results from patent publication US20040171688A1, “Carboxylic acids and derivatives thereof and pharmaceutical compositions containing them” (priority 1997, published 2004).

Biological target: T1, HNF-4α (Rattus norvegicus, UniProt P22449)
T1 sequence (P22449 1-464 isoform P22449-2): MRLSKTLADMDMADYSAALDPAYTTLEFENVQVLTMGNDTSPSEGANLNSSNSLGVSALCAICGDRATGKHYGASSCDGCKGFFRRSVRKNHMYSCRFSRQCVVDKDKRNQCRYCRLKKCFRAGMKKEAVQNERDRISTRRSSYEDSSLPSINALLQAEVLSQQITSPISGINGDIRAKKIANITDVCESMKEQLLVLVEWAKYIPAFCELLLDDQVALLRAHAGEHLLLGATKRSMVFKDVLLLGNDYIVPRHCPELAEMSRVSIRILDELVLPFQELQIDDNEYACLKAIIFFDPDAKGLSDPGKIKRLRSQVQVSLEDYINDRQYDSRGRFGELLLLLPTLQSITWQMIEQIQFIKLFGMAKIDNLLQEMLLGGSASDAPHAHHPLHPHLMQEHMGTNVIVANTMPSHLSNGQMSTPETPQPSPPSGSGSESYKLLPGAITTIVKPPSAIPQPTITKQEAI
Assay: In vitro transcription assay induced by His-HNF-4α with HeLa nuclear extract
Type: biochemical
Parameters: The full length HNF-4α1 cDNA cloned into 6His-pET11d vector was expressed in E.coli BL21 (DE3)plysS; 6His; made in house; host or cells: E. coli BL21 (DE3)plysS
Conditions: for HNF-4α transcriptional activity, agonist/antagonist character (summary): summary statement of Example 4
Description: a. Representative experiments showing in vitro transcription of the test template in the presence of increasing concentrations of His-HNF-4I and in the absence (lanes 1-3, 7-9) or presence of 10 μM of added palmitoyl(16:0)-CoA (lanes 4-6) or stearoyl(18:0)-CoA (lanes 10,11) as indicated. Correctly initiated transcripts of the test and control templates are denoted by (→) and ? , respectively.
b. HNF-4I-induced in vitro transcription in the absence (empty bars) or presence of 10 μM each of added palmitoyl(16:0)-CoA (filled bars) or stearoyl(18:0)-CoA (hatched bars). Fold transcription indicates the ratio of specific transcript produced by the test template over transcript from the control template normalized to the ratio observed without HNF-4a. The figure summarizes 5 independent experiments for each acyl-CoA. *-Significant as compared with the respective value in the absence of added ligand.
Reaction mixture contained 20 mM Hepes-KOH (pH 7.9), 5 mM MgCl2, 60 mM KCl, 8% glycerol, 2 mM DTT, 1 mM 3′-O-methyl-GTP, 10 units of T1RNase, 20 units of RNasin, 0.5 μg sonicated salmon sperm DNA and His-HNF-4α and test ligand as indicated. The mixture was preincubated for 30 min at 22° C. followed by adding 10 ng of pAdML200 control template consisting of the adenovirus major-late promoter (−400/+10) linked to a 200 bp G-less cassette and 200 ng of the test template consisting of three C3P copies of the apo CIII promoter sequence (−87/−66) upstream to a synthetic ovalbumin TATA box promoter in front of a 377 bp-G-less cassette. The mixture was further preincubated for 10 min at 22° C. followed by adding 40 μg of HeLa nuclear extract with additional preincubation for 30 min at 30° C. 0.5-mM ATP, 0.5 mM CTP, 25 μM UTP, and 10 μCi of [α-^32P]UTP (s.a. […], Amersham) were then added and the complete reaction mixture was incubated for 45 min at 30° C. in a final volume of 25 μl. The reaction was terminated by adding 175 μl of stop mix (0.1 M sodium acetate (pH 5.2), 10 mM EDTA, 0.1% SDS, 200 μg/ml tRNA) followed by phenol extraction and ethanol precipitation. RNA was resuspended in sample buffer containing 80% formamide and 10 mM Tris-HCl (pH 7.4) and separated on 5% polyacrylamide gel containing 7 M urea in TBE. Correctly initiated transcripts were quantitated by PhosphorImager analysis. The test DNA template was constructed by inserting into pC2AT19 plasmid a PCR-amplified oligonucleotide prepared by using the (C3P)3-TK-CAT plasmid as template and consisting of three copies of the C3P element of the Apo CIII promoter sequence (−87/−66) having an ECoRI and SSTI sites at the 5′ and 3′ ends, respectively. The resultant plasmid was cleaved with sphI and sacI and ligated to a synthetic oligonucleotide (5′-CGAGGTCCAC-[…]-3′) containing sequences of the HSV thymidine kinase promoter (−41/−29) and of the chicken ovalbumin promoter (−33/−21).
The effect of agonistic and antagonistic HNF-4α-ligands was further evaluated by analyzing the in vitro transcription rate, catalyzed by added HeLa nuclear extract and induced by recombinant HNF-4α, of a test template consisting of a 377 bp G-less cassette promoted by sequences of the HSV thymidine kinase and chicken ovalbumin promoters and enhanced by three C3P copies of the apo Clil gene promoter. Transcriptional activation by HNF-4α was evaluated in the presence and in the absence of added representative long chain fatty acyl-CoAs. […]

| effect on HNF-4α induced in vitro transcription (10 μM added acyl-CoA (FIG. 3)) | HNF-4α transcriptional activity, agonist/antagonist character (summary) | Structure (SMILES) |
| --- | --- | --- |
| inhibited | true antagonist | CCCCCCCCCCCCCCCCCC(=O)SCCNC(=O)CCNC(=O)[C@H](O)C(C)(C)COP(=O)(O)OP(=O)(O)OC[C@H]1O[C@@H](n2cnc3c(N)ncnc32)[C@H](O)[C@@H]1OP(=O)(O)O [Stearoyl(18:0)-CoA] |
|  | activators | CCCCCCCCCCCCCC(=O)SCCNC(=O)CCNC(=O)[C@H](O)C(C)(C)COP(=O)(O)OP(=O)(O)OC[C@H]1O[C@@H](n2cnc3c(N)ncnc32)[C@H](O)[C@@H]1OP(=O)(O)O [myristoyl(14:0)-CoA, reference compound] |
